Where two headings read alike, the source gives them in different places. Residues, ends and D or L forms follow the SMILES beside them.
How the values were obtained:
S. pyogenes (M1) = assay type: cell-based, Streptococcus pyogenes; settings: for MBC: M1
Protocol: (§1) Peptides were screened against Escherichia coli (BL21), Streptococcus pyogenes (M1T1 5448, hereby referred to as M1), Pseudomonas aeruginosa (PAO1), and Staphylococcus aureus (USA300). Overnight bacterial cultures were grown in optimal media for each species: Luria-Bertani (LB) broth for E. coli, P. aeruginosa, and S. aureus, and Todd-Hewitt (TH) broth for S. pyogenes. Cultures were pelleted and re-suspended in Mueller-Hinton (MH) broth for peptide screens or minimal inhibitory concentration (MIC) assays, with 1 × 10^6 CFU/mL bacteria added per well ([Wiegand et al., 2008]). MICs for each parent peptide were identified against each bacterial strain as previously described ([Fields et al., 2018]). Members of each peptide library were screened against each bacterial strain at half of the MIC of the corresponding parent peptide to identify library members with increased antimicrobial activity relative to the parent peptide. […] Minimal bactericidal concentrations (MBCs) were determined following the respective MIC assays by plating aliquots from wells corresponding to each peptide concentration from the 96-well plate used for the MIC on species-appropriate agar. Plates were incubated at 37°C overnight, and MBCs were identified as the lowest concentrations of peptide at which no colonies were obtained. A Synergy H1 Microplate Reader (BioTek, Winooski, VT, United States) was used to determine the MICs and identify peptides with greater antimicrobial activity than the corresponding parent peptide by measuring OD 600 of the bacterial cultures in 96-well microtiter plates.

P. aeruginosa (PAO1) = assay type: cell-based, Pseudomonas aeruginosa; settings: for MBC: PAO1; for MIC: PAO1, 16 h
Protocol: as §1

E. coli (BL21) = assay type: cell-based, Escherichia coli
Protocol: as §1

sheep erythrocytes = assay type: cell-based; settings: red cells of sheep, 1 h
Protocol: To determine if peptide variants were hemolytic, fresh defibrinated whole sheep blood (Hardy Diagnostics) was washed three times in cold PBS, and washed blood was diluted 1:25 in PBS. Treatments were applied at a 1:10 ratio of sample:blood, where the sample was either 10% Triton, PBS, or a specific peptide concentration corresponding to concentrations used in the MIC assays. Treatments were incubated with the blood for 1 h at 37°C. Following incubation, samples were centrifuged at […] for 10 min at 4°C, and the absorbance of the supernatants at 450 nm was measured on the Synergy H1 Microplate Reader to measure the release of hemoglobin. Percent hemolysis was quantified by normalizing to the negative and positive controls.

S. aureus (USA300) = assay type: cell-based, Staphylococcus aureus; settings: for MBC: USA300; for MIC: USA300, 16 h
Protocol: as §1

MIC (S. pyogenes (M1); M1, 16 h) [µM] | MIC (P. aeruginosa (PAO1)) [µM] | MIC (E. coli (BL21); BL21, 16 h) [µM] | MIC (S. aureus (USA300)) [µM] | MIC (S. pyogenes (M1); S. pyogenes M1) [µM] | MIC (E. coli (BL21); E. coli BL21) [µM] | Compound | MBC (S. pyogenes (M1)) [µM] | MBC (P. aeruginosa (PAO1)) [µM] | MBC (E. coli (BL21); BL21) [µM] | Percent Hemolysis (sheep erythrocytes) [%] | MBC (S. aureus (USA300)) [µM] | MBC (E. coli (BL21); E. coli BL21) [µM]
0.5 | 16 | 0.5 | 32 | – | – | CC[C@H](C)[C@H](NC(=O)[C@H](CCCCN)NC(=O)[C@H](CCCCN)NC(=O)[C@H](CCCCN)NC(=O)[C@H](CC(C)C)NC(=O)[C@H](Cc1ccccc1)NC(=O)[C@H](CCC(N)=O)NC(=O)[C@H](CCCNC(=N)N)NC(=O)[C@@H](NC(=O)[C@@H](NC(=O)[C@H](CCC(=O)O)NC(=O)[C@H](CCCCN)NC(=O)CNC(=O)[C@H](C)N)[C@@H](C)O)[C@@H](C)CC)C(=O)N[C@@H](CCC(N)=O)C(=O)N[C@@H](CCC(=O)O)C(=O)N[C@@H](Cc1c[nH]c2ccccc12)C(=O)N[C@@H](CCCCN)C(=O)N[C@@H](CCCCN)C(=O)N[C@@H](CCCNC(=N)N)C(=O)N[C@@H](C)C(=O)N[C@H](C(=O)N[C@H](C(=O)N[C@@H](C)C(=O)N[C@@H](Cc1c[nH]c2ccccc12)C(=O)O)[C@@H](C)CC)[C@@H](C)O [Syn-larvacin-44] (H-AGKETIRQFLKKKIQEWKKRATIAW-OH; N-terminus and C-terminus assumed) | 0.5 | 32 | 1 | 20.9 | 32 | –
– | 32 | 2 | 16 | 0.125 | – | CC[C@H](C)[C@H](NC(=O)[C@H](CCCCN)NC(=O)[C@H](C)NC(=O)[C@H](CCCNC(=N)N)NC(=O)[C@H](CCCCN)NC(=O)CNC(=O)[C@H](CCCCN)NC(=O)[C@H](CCC(=O)O)NC(=O)[C@H](CCC(N)=O)NC(=O)[C@@H](NC(=O)[C@@H](NC(=O)[C@H](CCCCN)NC(=O)[C@H](CCCCN)NC(=O)[C@H](CC(C)C)NC(=O)[C@H](Cc1ccccc1)NC(=O)[C@H](CCC(N)=O)NC(=O)[C@H](CCCNC(=N)N)NC(=O)[C@@H](NC(=O)[C@@H](NC(=O)[C@H](CCC(=O)O)NC(=O)[C@H](CCCCN)NC(=O)CNC(=O)[C@H](C)N)[C@@H](C)O)[C@@H](C)CC)[C@@H](C)O)[C@@H](C)CC)C(=O)N[C@@H](Cc1c[nH]c2ccccc12)C(=O)N[C@@H](Cc1c[nH]c2ccccc12)C(=O)O [Syn-larvacin-69] (H-AGKETIRQFLKKTIQEKGKRAKIWW-OH; N-terminus and C-terminus assumed) | 0.5 | 32 | 16 | 12.5 | 16 | –
4 | 16 | 2 | 8 | – | – | CC[C@H](C)[C@H](NC(=O)[C@H](CCCCN)NC(=O)CNC(=O)[C@H](Cc1ccccc1)NC(=O)[C@H](CCCCN)NC(=O)[C@H](CCCNC(=N)N)NC(=O)[C@H](CC(C)C)NC(=O)[C@H](Cc1ccc(O)cc1)NC(=O)[C@H](CCC(=O)O)NC(=O)[C@H](CC(C)C)NC(=O)[C@H](CC(C)C)NC(=O)[C@H](CCC(=O)O)NC(=O)[C@H](CCCCN)NC(=O)[C@@H](NC(=O)[C@H](CC(C)C)NC(=O)[C@H](CCCNC(=N)N)NC(=O)[C@H](CC(N)=O)NC(=O)[C@H](C)NC(=O)[C@H](CCCCN)NC(=O)[C@H](C)N)[C@@H](C)O)C(=O)N[C@@H](C)C(=O)N[C@@H](CCCNC(=N)N)C(=O)N[C@@H](CCCCN)C(=O)N[C@@H](C)C(=O)N[C@@H](Cc1c[nH]c2ccccc12)C(=O)O [Syn-xiamencin-96] (H-AKANRLTKELLEYLRKFGKIARKAW-OH; N-terminus and C-terminus assumed) | 4 | 16 | 2 | 20.0 | 8 | –
0.5 | 8 | – | 32 | – | 0.25 | CC[C@H](C)[C@H](NC(=O)[C@H](CCCNC(=N)N)NC(=O)CNC(=O)[C@@H](NC(=O)[C@H](CCCCN)NC(=O)[C@H](CCCNC(=N)N)NC(=O)[C@@H](NC(=O)[C@H](Cc1ccc(O)cc1)NC(=O)[C@H](CCCNC(=N)N)NC(=O)[C@H](CCCNC(=N)N)NC(=O)[C@H](CC(C)C)NC(=O)[C@H](CCC(=O)O)NC(=O)[C@H](CCCCN)NC(=O)[C@H](C)NC(=O)[C@@H](NC(=O)[C@H](CCCNC(=N)N)NC(=O)[C@H](CC(N)=O)NC(=O)[C@@H](NC(=O)[C@H](CCCCN)NC(=O)[C@H](C)N)[C@@H](C)O)[C@@H](C)CC)[C@@H](C)CC)C(C)C)C(=O)N[C@@H](C)C(=O)N[C@@H](CCCNC(=N)N)C(=O)N[C@@H](CCCCN)C(=O)N[C@@H](C)C(=O)N[C@@H](Cc1c[nH]c2ccccc12)C(=O)O [Syn-sordellicin-96] (H-AKTNRIAKELRRYIRKVGRIARKAW-OH; N-terminus and C-terminus assumed) | 0.5 | 16 | – | 14.6 | 32 | 0.25
4 | 16 | 4 | 8 | – | – | CC[C@H](C)[C@H](NC(=O)[C@H](Cc1ccccc1)NC(=O)[C@H](C)NC(=O)[C@H](CCCCN)NC(=O)[C@H](CCCCN)NC(=O)CNC(=O)[C@H](CCCNC(=N)N)NC(=O)[C@H](CCCCN)NC(=O)[C@H](CCCNC(=N)N)NC(=O)[C@H](CC(C)C)NC(=O)[C@H](CCC(=O)O)NC(=O)[C@H](CCC(=O)O)NC(=O)[C@H](CC(C)C)NC(=O)[C@H](CC(C)C)NC(=O)[C@H](Cc1ccc(O)cc1)NC(=O)[C@H](CCCCN)NC(=O)[C@@H](NC(=O)[C@H](CC(C)C)NC(=O)[C@H](C)NC(=O)[C@H](CCC(N)=O)NC(=O)[C@H](CCCNC(=N)N)NC(=O)[C@H](CCCCN)NC(=O)[C@H](C)N)[C@@H](C)O)C(=O)N[C@@H](C)C(=O)N[C@@H](Cc1c[nH]c2ccccc12)C(=O)O [Syn-xiamencin-92] (H-AKRQALTKYLLEELRKRGKKAFIAW-OH; N-terminus and C-terminus assumed) | 8 | 16 | 8 | 18.8 | 8 | –
2 | 8 | 1 | >128 | – | – | CC[C@H](C)[C@H](NC(=O)[C@H](CCC(=O)O)NC(=O)[C@H](CCCNC(=N)N)NC(=O)[C@H](CCCNC(=N)N)NC(=O)[C@H](CC(C)C)NC(=O)[C@H](Cc1ccc(O)cc1)NC(=O)[C@H](CCCCN)NC(=O)[C@H](C)NC(=O)[C@@H](NC(=O)[C@@H](NC(=O)[C@H](CCC(N)=O)NC(=O)[C@H](CCCNC(=N)N)NC(=O)CNC(=O)[C@H](C)N)[C@@H](C)O)[C@@H](C)CC)C(=O)N[C@@H](CCCNC(=N)N)C(=O)N[C@@H](CCCCN)C(=O)N[C@@H](CCCNC(=N)N)C(=O)NCC(=O)N[C@@H](CCCNC(=N)N)C(=O)N[C@@H](CCCCN)C(=O)N[C@@H](Cc1c[nH]c2ccccc12)C(=O)N[C@H](C(=O)N[C@H](C(=O)N[C@@H](C)C(=O)N[C@@H](Cc1c[nH]c2ccccc12)C(=O)O)[C@@H](C)CC)C(C)C [Syn-sordellicin-50] (H-AGRQTIAKYLRREIRKRGRKWVIAW-OH; N-terminus and C-terminus assumed) | 2 | 16 | 1 | 11.5 | >128 | –
0.25 | 64 | 1 | 8 | – | – | CC[C@H](C)[C@H](NC(=O)[C@H](CCCCN)NC(=O)[C@H](CCCCN)NC(=O)CNC(=O)[C@H](CCC(=O)O)NC(=O)[C@H](CCC(N)=O)NC(=O)[C@@H](NC(=O)[C@H](Cc1c[nH]c2ccccc12)NC(=O)[C@H](CCCCN)NC(=O)[C@H](CCCCN)NC(=O)[C@H](CC(C)C)NC(=O)[C@H](CCCNC(=N)N)NC(=O)[C@H](CCC(N)=O)NC(=O)[C@H](Cc1ccccc1)NC(=O)[C@@H](NC(=O)[C@H](CCCCN)NC(=O)[C@H](CCC(=O)O)NC(=O)[C@@H](NC(=O)CNC(=O)[C@H](C)N)[C@@H](C)O)[C@@H](C)CC)[C@@H](C)CC)C(=O)N[C@@H](C)C(=O)N[C@@H](CCCCN)C(=O)N[C@@H](CCCNC(=N)N)C(=O)N[C@@H](C)C(=O)N[C@@H](Cc1c[nH]c2ccccc12)C(=O)O [Syn-larvacin-31] (H-AGTEKIFQRLKKWIQEGKKIAKRAW-OH; N-terminus and C-terminus assumed) | 0.25 | 128 | 1 | – | 8 | –

— paper PMC7689250, “Synthetic Peptide Libraries Designed From a Minimal Alpha-Helical Domain of AS-48-Bacteriocin Homologs Exhibit Potent Antibacterial Activity” (Frontiers in Microbiology, 2020)
